Assay results taken from ChEMBL document CHEMBL4373705, “Design and synthesis of sulfonamidophenylethylamides as novel cardiac myosin activator” (2019).

What was measured:
Bos taurus = organism: Bos taurus; experiment: Activation of bovine cardiac actin thin filament complex-stimulated myosin S1 ATPase activity assessed as inorganic phosphate liberated at 10 uM incubated for 10 mins in presence of ATP by spectrophotometry relative to control
Oryctolagus cuniculus = organism: Oryctolagus cuniculus; experiment: Activation of rabbit skeletal muscle actin thin filament complex-stimulated myosin S1 ATPase activity assessed as inorganic phosphate liberated at 100 uM incubated for 10 mins in presence of ATP by spectrophotometry relative to control
Gallus gallus = organism: Gallus gallus; experiment: Activation of chicken gizzard muscle actin and tropomyosin-stimulated myosin S1 ATPase activity assessed as inorganic phosphate liberated at 100 uM incubated for 10 mins in presence of ATP by spectrophotometry relative to control
Rattus norvegicus [1] = experiment: Positive […] activity in Sprague-Dawley rat assessed as increase in ejection fraction at 16 ug/kg/min, iv for 3 mins by echocardiography relative to control; type: functional
Rattus norvegicus [2] = experiment: Positive […] activity in Sprague-Dawley rat assessed as increase in fractional shortening at 16 ug/kg/min, iv for 3 mins by echocardiography relative to control; type: functional
Rattus norvegicus [3] = organism: Rattus norvegicus; experiment: Activation of myosin ATPase activity in Sprague-Dawley rat ventricular myocytes assessed as increase in ventricular cell shortening by measuring change in ventricular cell contractility at 1 uM by electrophysiology relative to control
Rattus norvegicus [4] = organism: Rattus norvegicus; experiment: Activation of myosin ATPase activity in Sprague-Dawley rat ventricular myocytes assessed as increase in ventricular cell shortening by measuring change in ventricular cell contractility at 5 uM by electrophysiology relative to control

Structure (SMILES)	Activity (Bos taurus) [%]	Activity (Rattus norvegicus [1]) [%]	Activity (Rattus norvegicus [2]) [%]	further results
CN(C)S(=O)(=O)c1ccc(CCCC(=O)N2CCN(c3ccccc3)CC2)cc1	14			
CCN(Cc1ccc(S(=O)(=O)N(C)C)cc1)C(=O)CCCCc1ccccc1	17.5			
Cc1ccc2c(c1)C(=O)[C@]1(O)CCN(c3ccccc3)C1=N2				Activity (Oryctolagus cuniculus): -50.7%; Activity (Gallus gallus): -35.7%
CNS(=O)(=O)c1ccc(CCN(C)C(=O)CCCCc2ccccc2)cc1	46.5	9.22	13.51	
CN(C)S(=O)(=O)c1ccc(CCCC(=O)N2CCC(c3ccccc3)CC2)cc1	29.5			
COC(=O)N1CCN(Cc2cccc(NC(=O)Nc3ccc(C)nc3)c2F)CC1	58			Activity (Oryctolagus cuniculus): 2.8%; Activity (Rattus norvegicus [3]): 33.8%; Activity (Gallus gallus): -5.5%
CN(CCc1ccc(S(=O)(=O)N2CCOCC2)cc1)C(=O)CCCCc1ccccc1	14.9			
CN(C)S(=O)(=O)c1ccc(CCCC(=O)NCCCc2ccccc2)cc1	50.3	11.65	17.55	Activity (Oryctolagus cuniculus): -1.9%; Activity (Gallus gallus): 4.1%; Activity (Rattus norvegicus [4]): 20.5%
CCN(CC)S(=O)(=O)c1ccc(CCN(C)C(=O)CCCCc2ccccc2)cc1	17.9			
CN(C)S(=O)(=O)c1ccc(CCNC(=O)NCCCc2ccccc2)cc1	91.6			Activity (Rattus norvegicus [4]): 47.9%
CN(CCCc1ccccc1)C(=O)CCCc1ccc(S(=O)(=O)N(C)C)cc1	55	14.08	24.69	Activity (Oryctolagus cuniculus): 2.3%; Activity (Gallus gallus): -3.4%; Activity (Rattus norvegicus [4]): 46.5%
CN(CCc1ccc(S(=O)(=O)N(C)C)cc1)C(=O)CCCCc1ccccc1	48.5	15.28	26.21	Activity (Oryctolagus cuniculus): -4.8%; Activity (Gallus gallus): 5.2%; Activity (Rattus norvegicus [4]): 88.2%
CCN(CCc1ccc(S(=O)(=O)N(C)C)cc1)C(=O)CCCCc1ccccc1	13.9			
CN(Cc1ccc(S(=O)(=O)N(C)C)cc1)C(=O)CCCCc1ccccc1	24.1			
CN(CCc1ccc(S(=O)(=O)N(C)C)cc1)C(=O)NCCCc1ccccc1	52.3			Activity (Rattus norvegicus [4]): 45.5%
CN(CCCc1ccccc1)C(=O)NCCc1ccc(S(=O)(=O)N(C)C)cc1	47.6			Activity (Rattus norvegicus [4]): 63.5%

Second part, led by results:

Activity (Bos taurus) [%]	Structure (SMILES)	Activity (Rattus norvegicus [1]) [%]	Activity (Rattus norvegicus [2]) [%]	further results
43.3	O=C(CCCCc1ccccc1)NCCc1ccccc1F			
44.4	NS(=O)(=O)c1ccc(CNC(=O)CCCCc2ccccc2)cc1			
31.1	O=C(CCCCc1ccccc1)NC1Cc2ccccc2C1			
33.1	O=C(CCCCc1ccccc1)NCc1ccccc1			
57.4	COc1ccccc1CCNC(=O)CCCCc1ccccc1	9.18	13.06	
62.9	Cc1ccc(CCNC(=O)CCCCc2ccccc2)cc1			
53.3	O=C(NCCCc1ccccc1)NCc1ccccc1			
20	CN(C)S(=O)(=O)c1ccc(CNC(=O)CCCCc2ccccc2)cc1			
62	O=C(CCCc1ccccc1)NCCCc1ccccc1	9.08	13.85	
55.9	CNS(=O)(=O)c1ccc(CN(C)C(=O)CCCCc2ccccc2)cc1	9.95	15.75	
71.6	COc1ccc(CCNC(=O)CCCCc2ccccc2)cc1OC	8.19	11.83	
51.1	O=C(NCCCc1ccccc1)NCCc1ccccc1			
39.1	O=C(CCCCc1ccccc1)NCCc1ccccc1	13.97	22.8	Activity (Oryctolagus cuniculus): -2.9%; Activity (Gallus gallus): -2.8%; Activity (Rattus norvegicus [4]): 21.3%
78.7	NS(=O)(=O)c1ccc(CCNC(=O)CCCCc2ccccc2)cc1	2.7	4.48	
59	CN(C)S(=O)(=O)c1ccc(CCNC(=O)CCCCc2ccccc2)cc1	9.75	14.85	Activity (Oryctolagus cuniculus): -2.8%; Activity (Gallus gallus): 3%; Activity (Rattus norvegicus [4]): 18.6%
